From publication PMC10672575, “The Polyketides with Antimicrobial Activities from a Mangrove Endophytic Fungus Trichoderma lentiforme ML-P8-2” (Marine Drugs, 2023)
≈ marks a conversion by molar mass, not a printed value.

How the values were obtained:
[1] = tested on: methicillin-resistant Staphylococcus aureus (MRSA); experiment: Antibacterial MIC, serial dilution in 96-well plates
Method: (§1) All measurements were conducted in triplicate. Ampicillin and ketoconazole were applied as positive controls for antibacterial and antifungal assays, respectively, and DMSO was utilized as a blank control.

[2] = tested on: Staphylococcus aureus; experiment: as above
Method: as §1

[3] = tested on: Bacillus subtilis; experiment: as above
Method: as §1

[4] = tested on: Salmonella typhimurium; experiment: as above; conditions: Salmonella enterica
Method: as §1

[5] = tested on: Pseudomonas aeruginosa; experiment: as above
Method: as §1

[6] = target: AChE (Homo sapiens, UniProt P22303); experiment: biochemical; conditions: average of two independent experiments; read-out: IC50 for AChE inhibitory activities
Method: Donepezil hydrochloride was taken as a positive control. All measurements were conducted in triplicate from two independent experiments. The reported IC50 was the average value of two independent experiments.

[7] = Cytotoxicity, MTT assay; assay type: cell-based; conditions: human, A549 lung cancer cells
Method: The cytotoxicities of compounds 1–10 and eujavanicol A on cells were assessed using MTT assay as described previously. Six cell lines were used, MDA-MB-435 (breast cancer cells), MDA-MB-231 (breast cancer cells), HCT116 (colon cancer cells), A549 (lung cancer cells), SNB19 (glioma cells), and PC3 (prostate cancer cells), which were acquired from Fu Erbo Biotechnology Co., Ltd. (Guangzhou, China).

[8] = tested on: Candida albicans; experiment: Antifungal MIC, serial dilution in 96-well plates
Method: as §1

[9] = tested on: Penicillium italicum; experiment: Antifungal MIC, serial dilution in 96-well plates

Sequence of AChE (P22303 32-614): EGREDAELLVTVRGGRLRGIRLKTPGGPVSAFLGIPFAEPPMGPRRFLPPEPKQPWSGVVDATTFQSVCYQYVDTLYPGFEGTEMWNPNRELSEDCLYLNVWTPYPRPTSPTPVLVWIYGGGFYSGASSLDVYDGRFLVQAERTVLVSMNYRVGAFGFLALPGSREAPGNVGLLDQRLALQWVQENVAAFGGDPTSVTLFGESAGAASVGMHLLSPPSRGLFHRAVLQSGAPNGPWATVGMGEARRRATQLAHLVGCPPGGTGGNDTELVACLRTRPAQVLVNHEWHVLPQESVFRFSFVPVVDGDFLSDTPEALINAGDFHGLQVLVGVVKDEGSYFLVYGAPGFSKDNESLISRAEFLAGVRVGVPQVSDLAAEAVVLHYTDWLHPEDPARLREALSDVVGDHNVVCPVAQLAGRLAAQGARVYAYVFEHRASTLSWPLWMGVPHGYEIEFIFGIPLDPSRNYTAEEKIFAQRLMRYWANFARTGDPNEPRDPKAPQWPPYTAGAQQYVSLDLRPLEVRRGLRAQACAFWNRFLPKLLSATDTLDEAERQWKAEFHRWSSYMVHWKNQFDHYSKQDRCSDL

Compound	MIC [1]	MIC [2]	MIC [3]	MIC [4]	MIC [5]	IC50 [6]	IC50 [7]	MIC [8]	MIC [9]
CC1(C)S[C@@H]2[C@H](NC(=O)[C@H](N)c3ccccc3)C(=O)N2[C@H]1C(=O)O [Ampicillin, reference compound]	0.25 µM (≈ 0.0874 µg/mL)	0.25 µM (≈ 0.0874 µg/mL)	0.25 µM (≈ 0.0874 µg/mL)	0.25 µM (≈ 0.0874 µg/mL)	0.13 µM (≈ 0.0454 µg/mL)				
COc1cc(O)c2c(=O)c(C3CC(O)C(=O)O3)c(C)oc2c1 (centres unmarked) [Compound 1, 5-hydroxy-3-((3’R, 5’S)-3’-hydroxy-2’-oxotetrahydrofuran-5’-yl)-7-methoxy-2-methyl-4H-chromen-4-one]	> 100 µM	> 100 µM	> 100 µM	> 100 µM	> 100 µM	38.6 ± 0.2 µM	47.2 ± 5.5 µM	50 µM (≈ 15.3 µg/mL)	> 100 µM
COc1cc(OC)c2c(=O)c(CO)c(C)oc2c1 [Compound 2, 3-(hydroxymethyl)-5,7-dimethoxy-2-methyl-4H-chromen-4-one]	> 100 µM	> 100 µM	> 100 µM	> 100 µM	> 100 µM	33.7 ± 0.4 µM		100 µM (≈ 25 µg/mL)	> 100 µM
COc1cc(O)c2c(=O)c(CO)c(C)oc2c1 [Compound 3, 5-hydroxy-3-(hydroxymethyl)-7-methoxy-2-methyl-4H-chromen-4-one]	> 100 µM	> 100 µM	> 100 µM	> 100 µM	> 100 µM	20.6 ± 0.3 µM		25 µM (≈ 5.91 µg/mL)	> 100 µM
CCC(C)C1C=CC2C(O)C(OC(=O)C=C(C)CC(=O)O)CC(C)C2C1(C)C(=O)CCO (centres unmarked) [Compound 6, Tandyukisin J]	> 100 µM	> 100 µM	> 100 µM	> 100 µM	> 100 µM	40.2 ± 0.7 µM		25 µM (≈ 11.3 µg/mL)	6.25 µM (≈ 2.82 µg/mL)
CC[C@@H](C)[C@H]1C=C[C@H]2[C@H](O)[C@H](OC(=O)/C=C(\C)CC(=O)O)C[C@@H](C)[C@@H]2[C@@]1(C)C(=O)CCO [Compound 7, trichoharzin]	> 100 µM	> 100 µM	> 100 µM	> 100 µM	> 100 µM	38.3 ± 0.4 µM		50 µM (≈ 22.5 µg/mL)	12.5 µM (≈ 5.63 µg/mL)
CC[C@@H](C)[C@H]1C=C[C@H]2[C@H](O)[C@H](OC(=O)C/C(C)=C\C(=O)O)C[C@@H](C)[C@@H]2[C@@]1(C)C(=O)CCO [Compound 8, tandyukisin D]	> 100 µM	> 100 µM	> 100 µM	50 µM (≈ 22.5 µg/mL)	50 µM (≈ 22.5 µg/mL)	77.9 ± 1.7 µM		50 µM (≈ 22.5 µg/mL)	12.5 µM (≈ 5.63 µg/mL)
CC[C@@H](C)[C@H]1C=C[C@H]2[C@H](O)[C@H](OC(=O)C/C(C)=C/C(=O)O)C[C@@H](C)[C@@H]2[C@@]1(C)C(=O)CCO [Compound 9, tandyukisin G]	> 100 µM	50 µM (≈ 22.5 µg/mL)	> 100 µM	> 100 µM	50 µM (≈ 22.5 µg/mL)	43.6 ± 0.4 µM		25 µM (≈ 11.3 µg/mL)	6.25 µM (≈ 2.82 µg/mL)
CC[C@@H](C)[C@H]1C=C[C@H]2[C@H](OC(=O)C/C(C)=C\C(=O)O)[C@H](O)C[C@@H](C)[C@@H]2[C@@]1(C)C(=O)CCO [Compound 10, tandyukisin C]	> 100 µM	> 100 µM	> 100 µM	> 100 µM	> 100 µM	50.9 ± 0.5 µM		25 µM (≈ 11.3 µg/mL)	50 µM (≈ 22.5 µg/mL)
CC[C@@H](C)[C@H]1C=C[C@H]2[C@H](O)[C@H](O)C[C@@H](C)[C@@H]2[C@@]1(C)C(=O)CCO [Eujavanicol A, eujavanicol A]	> 100 µM	> 100 µM	> 100 µM	> 100 µM	> 100 µM	32.4 ± 0.7 µM		25 µM (≈ 8.11 µg/mL)	25 µM (≈ 8.11 µg/mL)
CC(=O)N1CCN(c2ccc(OCC3COC(Cn4ccnc4)(c4ccc(Cl)cc4Cl)O3)cc2)CC1 (centres unmarked) [Ketoconazole, reference compound]								0.13 µM (≈ 0.0691 µg/mL)	1.56 µM (≈ 0.829 µg/mL)
